Measured values: ChEMBL document CHEMBL4819130 (Bioorg Med Chem, 2021)
Active and inactive are the calls of the source. No cut-off for these calls is given here.

Experiments:
[1] = molecular target: T1, Cocaine esterase (Homo sapiens, UniProt O00748); test: Inhibition of CES2 in human liver microsomes assessed as reduction in substrate hydrolysis using fluorescein diacetate as substrate preincubated for 3 mins followed by substrate addition and measured after 20 mins by fluorescence analysis
T1 sequence (O00748 whole entry): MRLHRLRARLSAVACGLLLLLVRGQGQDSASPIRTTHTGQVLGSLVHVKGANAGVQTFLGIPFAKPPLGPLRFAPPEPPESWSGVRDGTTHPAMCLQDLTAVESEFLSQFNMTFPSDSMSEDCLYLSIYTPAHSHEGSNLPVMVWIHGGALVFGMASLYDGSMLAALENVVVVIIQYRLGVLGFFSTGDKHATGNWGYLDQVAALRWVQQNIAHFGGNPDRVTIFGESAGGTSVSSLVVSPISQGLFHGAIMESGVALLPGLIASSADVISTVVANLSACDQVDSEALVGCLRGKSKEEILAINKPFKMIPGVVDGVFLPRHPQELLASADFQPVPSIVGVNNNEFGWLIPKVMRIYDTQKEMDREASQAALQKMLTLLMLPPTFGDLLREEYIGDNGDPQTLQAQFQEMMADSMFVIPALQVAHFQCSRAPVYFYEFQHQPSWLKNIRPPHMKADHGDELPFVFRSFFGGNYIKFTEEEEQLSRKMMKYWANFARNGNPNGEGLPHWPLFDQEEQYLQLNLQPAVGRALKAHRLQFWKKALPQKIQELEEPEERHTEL

[2] = system: 3T3-L1; test: Cytotoxicity against mouse 3T3-L1 cells assessed as reduction in cell viability at <40 uM after 48 hrs by CCK8 assay; assay type: cell-based; conditions: 3t3-l1, 48 h
[3] = system: 3T3-L1; test: Inhibition of adipogenesis in mouse 3T3-L1 cells assessed as reduction in lipid droplet formation at 40 uM incubated with compound for 72 hrs in presence of adipogenesis-inducing agent followed by culturing in normal medium in presence of compound for 48 hrs by Oil red O staining based analysis; assay type: functional, cell-based; conditions: time 120.0 hrs
[4] = system: HepG2; test: Cytotoxicity against human HepG2 cells assessed as reduction in cell viability at <40 uM after 48 hrs by CCK8 assay; assay type: cell-based; conditions: hepg2, 48 h
[5] = system: 3T3-L1; test: Inhibition of adipogenesis in mouse 3T3-L1 cells assessed as reduction in lipid droplet formation at 10 uM incubated with compound for 72 hrs in presence of adipogenesis-inducing agent followed by culturing in normal medium in presence of compound for 48 hrs by Oil red O staining based analysis; assay type: functional, cell-based; conditions: time 120.0 hrs
[6] = system: Caco-2; test: Cytotoxicity against human Caco-2 cells assessed as reduction in cell viability at <40 uM after 48 hrs by CCK8 assay; assay type: cell-based; conditions: caco-2, 48 h

| SMILES | IC50 [1] [µM] | also measured |
| --- | --- | --- |
| Cc1cccc(CC2C(=O)N(c3ccccc3)N=C2c2ccccc2)c1 (stereo unspecified) | 7.11 | – |
| CCCCCCCC/C=C\CCCCCCCC(=O)OCC(O)COP(=O)(O)O (stereo unspecified) | 1.57 | – |
| Cc1ccc(C2=NN(c3ccccc3)C(=O)C2Cc2ccccc2)cc1 (stereo unspecified) | 3.82 | – |
| O=C1C(Cc2ccccc2[N+](=O)[O-])C(c2ccccc2)=NN1c1ccccc1 (stereo unspecified) | 10.9 | – |
| Cc1ccc(CC2C(=O)N(c3ccccc3)N=C2c2ccccc2)cc1 (stereo unspecified) | 5.16 | – |
| COc1ccc(CC2C(=O)N(c3ccccc3)N=C2c2ccccc2)cc1 (stereo unspecified) | 6.68 | – |
| Cc1ccc(CC2C(=O)N(C3CCCCC3)N=C2c2ccc(C)cc2)cc1 (stereo unspecified) | – | Activity [2]: Non-Toxic; inhibition [3]: Active; Activity [4]: Non-Toxic; inhibition [5]: Active; Activity [6]: Non-Toxic |
| O=C1C(Cc2ccccc2)C(c2ccc(Br)cc2)=NN1c1ccccc1 (stereo unspecified) | 6.19 | – |
| O=C1C(Cc2ccc(Br)cc2)C(c2ccccc2)=NN1c1ccccc1 (stereo unspecified) | 8.24 | – |
| CCC1C(=O)N(c2ccccc2)N=C1c1ccccc1 (stereo unspecified) | 9.04 | – |
| C=CCC1C(=O)N(c2ccccc2)N=C1c1ccccc1 (stereo unspecified) | 7.76 | – |
| O=C1C(Cc2ccccc2)C(c2ccccc2)=NN1C1CCCCC1 (stereo unspecified) | 9.12 | – |
